{"source": "PubChem BioAssay AID624375", "about": "(Broad Institute, 2012)", "note": "Inconclusive results are not listed. Active and inactive are the calls of the source.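 Rule for the calls: active = fitted curve reaches -35% activity change at a concentration under twice the top valid dose, in every replicate test; inconclusive = replicate tests disagree on the call; inactive = the rest, including activity in the opposite direction.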"}
{"test_system": "not listed separately", "test": "LCL growth inhibition by ATP luminescence – cell-based, CellTiter-Glo, dry powder, replicate tests, EBV LMP1 NF-kB inhibitor project, dose response (AID 624375)", "conditions": "EBV-transformed LCL viability, CellTiter-Glo ATP luminescence, 48 h; at 10 µM (top of the series)"}
{"compound": "C/C=C/C/C=C/CCC(=O)[C@H]1O[C@H]1C(N)=O", "activity change, negative = inhibition": "-4.56% (inactive)"}
{"test_system": "not listed separately", "test": "LCL growth inhibition by ATP luminescence – cell-based, CellTiter-Glo, dry powder, replicate tests, EBV LMP1 NF-kB inhibitor project, dose response (AID 624375)", "conditions": "EBV-transformed LCL viability, CellTiter-Glo ATP luminescence, 48 h; at 12 µM (top of the series)"}
{"compound": "C=C1C[C@]23C[C@@]1(O)CC[C@H]2[C@@]12C=C[C@H](O)[C@@](C)(C(=O)O1)[C@H]2[C@@H]3C(=O)O", "activity change, negative = inhibition": "5.8% (inactive)"}
{"test_system": "not listed separately", "test": "LCL growth inhibition by ATP luminescence – cell-based, CellTiter-Glo, dry powder, replicate tests, EBV LMP1 NF-kB inhibitor project, dose response (AID 624375)", "conditions": "EBV-transformed LCL viability, CellTiter-Glo ATP luminescence, 48 h; at 19.5 µM (top of the series)"}
{"compound": "CCn1c2ccccc2c2cc(/C=N/n3cnnc3)ccc21", "activity change, negative = inhibition": "-4.23% (inactive)"}
{"compound": "O=C(CCc1ccccc1)NC(c1cccs1)c1cc(Cl)c2cccnc2c1O", "note": "(centres undefined)", "activity change, negative = inhibition": "4.93% (inactive)"}
{"compound": "COc1ccc(-c2csc3ncnc(NCCN4CCOCC4)c23)cc1", "activity change, negative = inhibition": "-6.51% (inactive)"}
{"compound": "CCc1ccc(/C=C2\\SC(=S)N(CCCC(=O)Nc3ccccn3)C2=O)cc1", "activity change, negative = inhibition": "3.41% (inactive)"}
{"compound": "C[C@@H]1CCCCO[C@H](CN(C)C(=O)c2ccccc2)[C@H](C)CN([C@@H](C)CO)C(=O)c2cc(NC(=O)Nc3ccc(F)cc3)ccc2O1", "activity change, negative = inhibition": "2.16% (inactive)"}
{"compound": "c1ccc(-c2cn3c4c(sc3n2)CCCC4)cc1", "activity change, negative = inhibition": "6.87% (inactive)"}
{"compound": "C[C@@H]1CCCCO[C@@H](CN(C)Cc2ccccc2)[C@H](C)CN([C@H](C)CO)C(=O)c2cc(NC(=O)Nc3ccc4c(c3)OCO4)ccc2O1", "activity change, negative = inhibition": "1.71% (inactive)"}
{"compound": "CCc1sc(C(=O)Nc2ncccc2O)cc1C", "activity change, negative = inhibition": "-13.2% (inactive)"}
{"compound": "CCCSc1nnc2c3ccccc3n(Cc3ccccc3)c2n1", "activity change, negative = inhibition": "-1.02% (inactive)"}
{"compound": "C[C@@H]1CCCCO[C@H](CN(C)S(=O)(=O)c2ccccc2)[C@@H](C)CN([C@@H](C)CO)C(=O)c2cc(N(C)C)ccc2O1", "activity change, negative = inhibition": "-2.16% (inactive)"}
{"compound": "CC1=C(C(=O)OCc2ccc3c(c2)OCO3)C(c2ccc(F)cc2)NC(=O)N1", "note": "(centres undefined)", "activity change, negative = inhibition": "-2.46% (inactive)"}
{"compound": "CCc1ccc(/C=C/C(=O)C2C(=O)c3ccccc3C2=O)cc1", "activity change, negative = inhibition": "10.9% (inactive)"}
{"compound": "COc1ccc(-c2cc3nc4n(c(=O)c3s2)CCC4)cc1", "activity change, negative = inhibition": "-3.35% (inactive)"}
{"compound": "C=CCN1Cc2ccccc2[C@@H]2OC(c3ccc(OCCCO)cc3)=N[C@]2(CCC(=O)OC(C)(C)C)C1=O", "activity change, negative = inhibition": "1.04% (inactive)"}
{"compound": "COc1cccc(/C=N/Nc2ncnc3c2ncn3Cc2ccccc2)c1O", "activity change, negative = inhibition": "-7.51% (inactive)"}
{"test_system": "EBV-transformed LCL viability, CellTiter-Glo ATP luminescence, 48 h", "test": "LCL growth inhibition by ATP luminescence – cell-based, CellTiter-Glo, dry powder, replicate tests, EBV LMP1 NF-kB inhibitor project, dose response (AID 624375)", "conditions": "not given", "units": {"AC35": "µM"}}
{"compound": "S=C(N/N=C(\\c1ccccc1)c1ccccn1)N(Cc1ccccn1)Cc1ccccn1", "AC35": 0.135}
{"compound": "C/C(=N\\NC(=S)N1CC2CCC(CC2)C1)c1ccncn1", "AC35": "< 0.08"}
{"compound": "CSc1nc(-c2ccc(C)cc2)nc(C(Cl)Cl)n1", "AC35": 21.7}
{"compound": "C/C(=N\\NC(=S)N1CCCCC1)c1cccc(C)n1", "AC35": "< 0.08"}
{"compound": "C/C(=N\\NC(=S)N1CCCCC1)c1ccccn1", "AC35": "< 0.08"}
{"compound": "CC12CCC3C(CC=C4CC(O)CCC43CO)C1CCC2OC(=O)c1ccccc1", "note": "(centres undefined)", "AC35": 45.6}
{"compound": "CC(=O)Nc1nc(C)c(-c2csc(Nc3ccc(O)cc3)n2)s1", "AC35": 22.8}
{"compound": "C[C@@H]1CN([C@@H](C)CO)C(=O)c2cccc(NC(=O)Nc3cccc4ccccc34)c2O[C@H]1CN(C)C(=O)Nc1ccc(C(F)(F)F)cc1", "AC35": 29.8}
{"compound": "COc1ccc(NC(=O)c2ccc(OC(C)C(=O)O)cc2)cc1Cl", "note": "(centres undefined)", "AC35": 34.1}
{"compound": "C[C@@H]1CN([C@@H](C)CO)C(=O)c2cc(NC(=O)Nc3ccc(C(F)(F)F)cc3)ccc2O[C@@H](C)CCCCO[C@@H]1CN(C)CC1CCCCC1", "AC35": 45.7}
{"compound": "C/C(=N\\NC(=S)Nc1ccccc1)c1ccccn1", "AC35": "< 0.08"}
{"compound": "C/C(=N\\NC(=S)N1CCN(C2CCCCCC2)CC1)c1ccccn1", "AC35": "< 0.08"}
{"compound": "C[C@H]1CCCCO[C@@H](CN(C)CC2CCCCC2)[C@@H](C)CN([C@@H](C)CO)C(=O)c2cc(NC(=O)C3CCCCC3)ccc2O1", "AC35": 18.1}
{"compound": "CSC(=S)N/N=C(\\C)c1cccc(C)n1", "AC35": 0.687}
{"compound": "CCC(Sc1nnc2c3ccccc3n(Cc3ccc(Br)cc3)c2n1)C(=O)NCCCN1CCOCC1", "note": "(centres undefined)", "AC35": 8.58}
{"compound": "C/C(=N\\NC(=S)N1CC2CCC(CC2)C1)c1cnccn1", "AC35": "< 0.08"}
{"compound": "CC(C)=CCN(C(=O)C#Cc1ccccc1)[C@H](CO)c1ccccc1", "AC35": 8.22}
{"compound": "C/C(=N\\NC(=S)N1CCN(c2ccccn2)CC1)c1ccccn1", "AC35": "< 0.08"}
{"compound": "C/C(=N\\NC(=S)Nc1cccc(Cl)c1)c1ccccn1", "AC35": "< 0.08"}
{"compound": "C/C(=N\\NC(=S)N1CC2CCC(CC2)C1)c1cccc(C)n1", "AC35": 0.409}
{"compound": "C[C@H](CO)N1C[C@H](C)[C@@H](CN(C)CC2CC2)OCCCC[C@H](C)Oc2ccc(NC(=O)Nc3cccc4ccccc34)cc2C1=O", "AC35": 43}
{"compound": "O=C1/C(=C/c2ccncc2)SC(=S)N1Cc1ccccc1", "AC35": 38.5}
{"compound": "C/C(=N\\NC(=S)N1CCCC1)c1ccccn1", "AC35": "< 0.08"}
{"compound": "C/C(=N\\NC(=S)N1CCC1)c1ccccn1", "AC35": "< 0.08"}
{"compound": "C/C(=N\\NC(=S)Nc1ccc(C)cc1)c1ccccn1", "AC35": "< 0.08"}
{"compound": "COc1ccccc1NC(=S)N/N=C(\\C)c1ccccn1", "AC35": "< 0.08"}
{"compound": "COc1ccc2[nH]c(C(=O)N/N=C/c3ccc(O)cc3O)cc2c1", "AC35": 26.7}
{"compound": "C[C@@H]1CN([C@@H](C)CO)C(=O)c2cc(NC(=O)Nc3ccc(C(F)(F)F)cc3)ccc2O[C@@H](C)CCCCO[C@H]1CN(C)Cc1ccc(C(F)(F)F)cc1", "AC35": 30.8}
{"compound": "Cc1c(NC(=O)c2cccc(NC(=O)COc3ccccc3C#N)c2)c(=O)n(-c2ccccc2)n1C", "AC35": 45.6}
{"compound": "C/C(=N\\NC(=S)Nc1cccc(C)c1)c1ccccn1", "AC35": "< 0.08"}
{"compound": "C[C@@H]1CN([C@@H](C)CO)C(=O)c2cc(NC(=O)Nc3ccc4c(c3)OCO4)ccc2O[C@H]1CN(C)CC1CCCCC1", "AC35": 89.9}
{"compound": "C/C(=N\\NC(=S)N1CCCCCC1)c1ccccn1", "AC35": "< 0.08"}
{"compound": "C[C@H](CO)N1C[C@H](C)[C@H](CN(C)C(=O)Nc2ccc(C(F)(F)F)cc2)OCCCC[C@H](C)Oc2ccc(NC(=O)Nc3ccc(F)cc3)cc2C1=O", "AC35": 21.5}
{"compound": "Nc1ccn([C@@H]2O[C@H](CO)[C@@H](O)C2O)c(=O)n1", "note": "(some centres undefined)", "AC35": 26.1}
{"compound": "C[C@@H]1CCCCO[C@H](CN(C)C(=O)NC2CCCCC2)[C@H](C)CN([C@@H](C)CO)C(=O)c2cc(NC(=O)C3CCCCC3)ccc2O1", "AC35": 22.1}
{"compound": "C/C(=N\\NC(=S)N1CC2CCC(CC2)C1)c1ccccn1", "AC35": "< 0.08"}
{"compound": "C[C@H](CO)N1C[C@H](C)[C@@H](CN(C)Cc2ccc(-c3ccccc3)cc2)Oc2ccc(NC(=O)Nc3cccc4ccccc34)cc2CC1=O", "AC35": 28.8}
{"compound": "Cc1ccnc(NC(=O)c2ccc(C(=O)c3ccccc3)cc2)c1", "AC35": 24.1}
{"compound": "COCCCNC(=O)C(C)Sc1nnc2c3cc(C)ccc3n(Cc3ccccc3F)c2n1", "note": "(centres undefined)", "AC35": 25}
{"compound": "Cc1ccc(NC(=O)C2CCN(S(=O)(=O)c3ccc4c(c3)NC(=O)C(C)S4)CC2)cc1Cl", "note": "(centres undefined)", "AC35": 45.7}
{"compound": "O=c1[nH]c(=O)n([C@H]2C[C@H](O)[C@@H](CO)O2)cc1C(F)(F)F", "AC35": 10.1}
{"compound": "C/C(=N\\NC(=S)Nc1ccccc1Cl)c1ccccn1", "AC35": "< 0.08"}
{"compound": "C=C1C[C@]23C[C@@]1(O)CC[C@@H]2c1cccc(C)c1[C@@H]3C(=O)O", "AC35": 9.19}
{"compound": "S=C(NCc1ccccn1)N/N=C/c1ccccn1", "AC35": "< 0.08"}
{"compound": "O=C(CSc1nnc2c3ccccc3n(Cc3ccccc3)c2n1)NCc1ccco1", "AC35": 44.1}
{"compound": "Fc1ccc2c(c1)c1nnc(SCCN3CCOCC3)nc1n2Cc1ccccc1", "AC35": 4.38}
{"compound": "CCN1CCN(C(c2cccnc2)c2cc(Cl)c3cccnc3c2O)CC1", "note": "(centres undefined)", "AC35": 26.5}
